Test results reported in the supplement of paper PMC10307832.

Assays:
Assay in all cases: relative viability (nuclei count vs DMSO), 5 days (fraction); higher = more cells survive
[1] = compound: Cc1ccc(C(=O)Nc2cccc(C(F)(F)F)c2)cc1Nc1cncc(C(N)=O)c1 [ALW-II-49-7] + COc1cccc2cc(-c3nc([C@H]4CC[C@H](C(=O)O)CC4)n4ncnc(N)c34)[nH]c12 [OSI-027] (partner 0.5 µM)
How it was run: (§1)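 Relative viability is defined as nuclei in treated wells over nuclei in vehicle wells. Duplicate plates were run and medians reported. Lung cancer cell lines in 1536-well plates were dosed by pin tool one day after seeding, with one drug or with a fixed anchor-drug dose plus five library-drug doses (not always all listed) in √10 steps, and nuclei were counted after 5 days.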

[2] = compound: Cc1nc(Nc2ncc(C(=O)Nc3c(C)cccc3Cl)s2)cc(N2CCN(CCO)CC2)n1 [Dasatinib] + NC(=O)Nc1cc(-c2cccc(F)c2)sc1C(=O)N[C@H]1CCCNC1 [AZD7762] (partner 0.2 µM)
How it was run: as §1

[3] = compound: Cc1ccc(C(=O)Nc2cccc(C(F)(F)F)c2)cc1Nc1cncc(C(N)=O)c1 [ALW-II-49-7] + Nc1ncn([C@H]2C[C@H](O)[C@@H](CO)O2)c(=O)n1 [Decitabine] (partner 2 µM)
How it was run: as §1

[4] = compound: Cc1nc(Nc2ncc(C(=O)Nc3c(C)cccc3Cl)s2)cc(N2CCN(CCO)CC2)n1 [Dasatinib] + O=C(CCCCCCC(=O)Nc1ccccc1)NO [Vorinostat] (partner 1 µM)
How it was run: as §1

Cell Line	relative viability ([1]; first compound 0.08 µM)	relative viability ([1]; first compound 0.253 µM)	relative viability ([1]; first compound 0.8 µM)	relative viability ([1]; first compound 2.53 µM)	relative viability ([1]; first compound 8 µM)	relative viability ([2]; first compound 0.005 µM)	relative viability ([2]; first compound 0.01581 µM)	relative viability ([2]; first compound 0.05 µM)	relative viability ([2]; first compound 0.1581 µM)	relative viability ([2]; first compound 0.5 µM)	relative viability ([3]; first compound 0.08 µM)	relative viability ([3]; first compound 0.253 µM)	relative viability ([3]; first compound 0.8 µM)	relative viability ([3]; first compound 2.53 µM)	relative viability ([3]; first compound 8 µM)	relative viability ([4]; first compound 0.005 µM)	relative viability ([4]; first compound 0.01581 µM)	relative viability ([4]; first compound 0.05 µM)	relative viability ([4]; first compound 0.1581 µM)	relative viability ([4]; first compound 0.5 µM)
NCI-H23	0.52	0.492	0.476	0.562	0.475	0.321	0.24	0.231	0.224	0.187	0.311	0.286	0.303	0.328	0.333	0.519	0.567	0.512	0.349	0.314
NCI-H1793	0.257	0.301	0.24	0.235	0.248	0.425	0.369	0.247	0.229	0.273	0.518	0.527	0.516	0.471	0.53	0.56	0.571	0.46	0.357	0.344
A-427	0.412	0.484	0.472	0.444	0.473	0.72	0.745	0.536	0.52	0.519	0.531	0.585	0.616	0.612	0.655	0.831	0.766	0.793	0.517	0.495
ABC-1	0.404	0.423	0.481	0.494	0.379	0.74	0.689	0.758	0.747	0.383	1.02	1.11	1.01	1.35	0.947	1.18	1.17	0.731	0.787	0.706
NCI-H322M	0.54	0.469	0.444	0.447	0.406	0.597	0.526	0.468	0.265	0.381	0.618	0.774	0.637	0.756	0.671	0.668	0.535	0.426	0.311	0.258
SW 900	0.426	0.642	0.555	0.445	0.347	0.592	0.534	0.371	0.36	0.147	0.506	0.487	–	0.552	0.661	0.356	0.282	0.289	0.163	0.192
NCI-H2085	0.778	0.748	0.625	0.806	0.738	0.992	0.688	0.436	0.39	0.2	0.515	0.537	0.48	0.523	0.55	0.831	0.632	0.567	0.259	0.202
NCI-H2087	0.578	0.537	0.525	0.547	0.51	1.34	1.19	1.49	0.857	0.556	0.244	0.254	0.212	0.311	0.203	0.954	0.494	0.778	0.714	0.156
